Assay results as given in EP1056745B1, “6,9-DISUBSTITUTED 2- TRANS-(4- AMINOCYCLOHEXYL) AMINO]PURINES” (Aventis Pharmaceuticals Inc., priority 1998, dated 1999).

Columns and labels:
[1] = tested on: PC-3 Human Prostate Tumor; test: Subrenal capsule assay, inhibition of PC-3 tumor growth; assay type: in vivo, Nude Mice; settings: for V/V0 (mean ± s.e.m.): 12 days, Experiment # 1; for %T/C: day 12, Experiment # 1
Description: Nude mice were housed in microisolator cages under positive air pressure. Surgical procedures and dosing were performed in a laminar flow cabinet. The subrenal capsule assay was performed as described in Bogden, A. E., Kelton, D. E., Cobb, W. R. and Esber, H. J. A rapid screening method for testing chemotherapeutic agents against human tumor xenografts. In: D. P. Houchens and A. A. Ovejera (eds.), Proceedings of the Symposium on the Use of Athymic (Nude) Mice in Cancer Research, pp 231-250. New York: Gustav Fischer New York, Inc. 1978. Briefly, tumors of 400-500 mm^3 obtained from maintenance mice were cut into 1 mm^3 pieces and the sizes checked using an ocular micrometer and a dissecting microscope. After exteriorization of the kidney, tumor pieces were implanted under the capsule of the kidneys of male nude mice (6-8 weeks of age) using a 13 Ga trochar. After implantation, the longest and shortest diameters of the tumor piece were measured using the ocular micrometer and a dissecting microscope. The kidney was placed back into the body cavity and the body wall incision closed with silk sutures and the skin incision closed with wound clips. Drug treatment was begun on the day following implantation and continued for 12 days at which time the kidneys were again exteriorized and tumor size measured as described above. Tumor volume was calculated by the formula, V = length x width^2/2 as described in Houchens, D. P., Ovejera, A. A., and Barker, A. D. The therapy of human tumors in athymic (nude) mice. In : D. P. Houchens and A. A. Ovejera (eds.), Proceedings of the Symposium on the Use of Athymic (Nude) Mice in Cancer Research, pp. 267-280. New York: Gustav Fischer New York, Inc., 1978.

proliferating PC12 cells = settings: cited from earlier work
[2] = tested on: cAMP- and cGMP-dependent kinases, and protein kinase C; settings: cited from earlier work
rat sympathetic neurons = settings: camptothecin-treated; cited from earlier work
cortical neurons = settings: cited from earlier work; for IC50: protection against camptothecin-induced death
[3] = tested on: neuronally differentiated PC12 cells; settings: cited from earlier work; for concentration of maximal protection from death: camptothecin-treated; for cell death: day 6, in the presence or absence of camptothecin, both or individual
[4] = tested on: neuronal PC12 cells and sympathetic neurons; settings: two model systems of neuronal survival; cited from earlier work
[5] = tested on: CDK-cyclin protein kinases; settings: moderate inhibitory activity; cited from earlier work
[6] = camptothecin-treated neuronal cells

Cl.Cl.N[C@H]1CC[C@H](Nc2nc(NCc3cccc(I)c3)c3ncn(C4CCCC4)c3n2)CC1 [Example 1, 2-[Trans-(4-aminocyclohexyl)amino]-6-(3-iodobenzylamino)-9-cyclopentylpurine dihydrochloride]
V/V0 (mean ± s.e.m.) ([1]; 1 mg/kg i.p. daily): 4.8 ± 3.1
%T/C ([1]; 1 mg/kg i.p. daily): 109%
V/V0 (mean ± s.e.m.) ([1]; 3 mg/kg i.p. daily): 2.0 ± 1.0
%T/C ([1]; 3 mg/kg i.p. daily): 44%

Cn1cnc2c(NCc3ccccc3)nc(NCCO)nc21 [Olomoucine, 6-(benzylamino)-2-[(2-hydroxyethyl)amino]-9-methylpurine]
minimum concentration that fully inhibits DNA synthesis (proliferating PC12 cells): 200 µM
effect on other major protein kinases [2]: no effect
concentration of maximal protection from death (rat sympathetic neurons): 200 µM
IC50 (cortical neurons): 100 µM
concentration of maximal protection from death [3]: 200 µM
cell death [3]: approximately 30%
death of neuronal cells [4]: suppress the death
IC50 [5]: ~7 µM

CN1CC[C@H](c2c(O)cc(O)c3c(=O)cc(-c4ccccc4Cl)oc23)[C@H](O)C1 [flavopiridol]
minimum concentration that fully inhibits DNA synthesis (proliferating PC12 cells): 1 µM
concentration of maximal protection from death (rat sympathetic neurons): 1 µM
IC50 (cortical neurons): 0.1 µM
concentration of maximal protection from death [3]: 1 µM
cell death [3]: approximately 30%
death of neuronal cells [4]: suppress the death

Cn1cnc2nc(NCCO)nc(NCc3ccccc3)c21 [iso-olomoucine]
prevention of cell death (cortical neurons; [6]): failed to prevent the cell death
prevention of cell death [3, 6]: failed to prevent the cell death
